Measured values taken from patent US5583115A, “Dialkyltiacumicin compounds” (Abbott Laboratories, priority 1995, dated 1996).

How the values were obtained:
P. cepacia = assay: MIC agar dilution, aerobic and facultative bacteria; conditions: Culture # 1684
B. thetaiotaomicron = assay: MIC agar dilution, anaerobic bacteria; assay type: cell-based
B. bivius = assay: MIC agar dilution, anaerobic bacteria; assay type: cell-based; conditions: Culture # 2483
C. ramosum = assay: MIC agar dilution, anaerobic bacteria; assay type: cell-based; conditions: Culture # 2482
P. magnus = assay: MIC agar dilution, anaerobic bacteria; assay type: cell-based; conditions: Culture # 1778
B. vulgatus = assay: MIC agar dilution, anaerobic bacteria; assay type: cell-based
S. pyogenes = assay: MIC agar dilution, aerobic and facultative bacteria
Nocardia asteroides = assay: as above; conditions: Culture # 5173
Pseudomonas aeruginosa = assay: as above
Propionibacterium acnes = assay: MIC agar dilution, anaerobic bacteria; assay type: cell-based; conditions: Culture # 1775
E. coli = assay: MIC agar dilution, aerobic and facultative bacteria; assay type: cell-based
Bacteriodes fragilis = assay: MIC agar dilution, anaerobic bacteria; assay type: cell-based
[1] = test system: Peptostreptococcus asaccharolyticus; assay: MIC agar dilution, anaerobic bacteria; assay type: cell-based; conditions: Culture # 1777
Fusobacterium species = assay: MIC agar dilution, anaerobic bacteria; assay type: cell-based; conditions: Culture # 1770
Fusobacterium nucleatum = assay: MIC agar dilution, anaerobic bacteria; assay type: cell-based; conditions: Culture # 2478
Enterobacter aerogenes = assay: MIC agar dilution, aerobic and facultative bacteria; conditions: Culture # 1677
Clostridium perfringens = assay: microbe, parasite or virus in culture; assay type: cell-based
P. anaerobius = assay: MIC agar dilution, anaerobic bacteria; assay type: cell-based; conditions: Culture # 1780
Providencia stuartii = assay: MIC agar dilution, aerobic and facultative bacteria; conditions: Culture # 1831
Streptococcus agalactiae = assay: as above; conditions: Culture # 1670
Streptococcus bovis = assay: as above; conditions: Culture # 1699
Micrococcus luteus = assay: as above
Veillonella parvula = assay: MIC agar dilution, anaerobic bacteria; assay type: cell-based; conditions: Culture # 2479
B. disiens = assay: MIC agar dilution, anaerobic bacteria; assay type: cell-based; conditions: Culture # 1763
C. difficile = assay: MIC agar dilution, anaerobic bacteria; assay type: cell-based
Mycobacterium smegmatis = assay: MIC agar dilution, aerobic and facultative bacteria; conditions: Culture # 5171
[2] = test system: Acinetobacter calcoaceticus; assay: as above; conditions: Culture # 1845
Klebsiella pneumoniae = assay: as above; conditions: Culture # 2518
B. loescheii = assay: MIC agar dilution, anaerobic bacteria; assay type: cell-based; conditions: Culture # 1767
Candida albicans = assay: MIC agar dilution, aerobic and facultative bacteria; conditions: Culture # 3622
S. epidermidis = assay: as above; conditions: Culture # 1666
Enterococcus faecium = assay: as above; conditions: Culture # 1668
Staphylococcus aureus = assay: as above
P. species = assay: MIC agar dilution, anaerobic bacteria; assay type: cell-based; conditions: Culture # 1776

Measured: MIC

CCc1c(Cl)c(O)c(Cl)c(O)c1C(=O)O[C@H]1[C@H](O)[C@H](OC)[C@H](OC/C2=C\C=C\C[C@H](O)/C(C)=C/[C@H](CC)[C@@H](O[C@@H]3OC(C)(C)[C@@H](OC(=O)C(C)C)[C@H](O)[C@@H]3O)/C(C)=C/C(C)=C/C[C@@H]([C@@H](C)O)OC2=O)O[C@@H]1C [Tiacumicin B, tiacumicin B]
0.06 µg/mL: C. difficile; Culture # 1496 | C. difficile; Culture # 1497 | C. difficile; Culture # 2025 | C. difficile; Culture # 2480 | C. difficile; Culture # 2528 | C. difficile; Culture # 2529
> 100 µg/mL: P. cepacia | Pseudomonas aeruginosa; Culture # 1679 | Pseudomonas aeruginosa; Culture # 1680 | Pseudomonas aeruginosa; Culture # 1681 | Pseudomonas aeruginosa; cipro R, Culture # 1919 | Pseudomonas aeruginosa; cipro R, Culture # 1920 | E. coli; DC-2, Culture # 1674 | E. coli; H560, Culture # 1675 | E. coli; Juhl, Culture # 1673 | E. coli; KNK437, Culture # 1676 | E. coli; SS, Culture # 2489 | Enterobacter aerogenes | Providencia stuartii | [2] | Klebsiella pneumoniae | Candida albicans
25 µg/mL: S. pyogenes; Culture # 1671 | Streptococcus bovis
0.03 µg/mL: Clostridium perfringens; Culture # 1772 | C. difficile; Culture # 1774
0.5 µg/mL: P. magnus
0.1 µg/mL: Micrococcus luteus; Culture # 2493
0.008 µg/mL: Clostridium perfringens; Culture # 1771 | Clostridium perfringens; Culture # 1773 | P. anaerobius
12.5 µg/mL: Pseudomonas aeruginosa; Culture # 1682 | Streptococcus agalactiae | Mycobacterium smegmatis | Staphylococcus aureus; Culture # 1690 | Staphylococcus aureus; Culture # 2130 | Staphylococcus aureus; cipro res., Culture # 3384
32 µg/mL: B. disiens | P. species
6.2 µg/mL: S. pyogenes; inducible, Culture # 2548 | Enterococcus faecium | Staphylococcus aureus; Culture # 1662, brain heart infusion agar, 37° C., 20 hours | Staphylococcus aureus; Culture # 1664 | Staphylococcus aureus; Culture # 2124 | Staphylococcus aureus; Culture # 2498
> 128 µg/mL: B. thetaiotaomicron; Culture # 1764 | B. thetaiotaomicron; Culture # 1765 | B. thetaiotaomicron; Culture # 1766 | C. ramosum | B. vulgatus; Culture # 1762 | B. vulgatus; Culture # 2481 | Bacteriodes fragilis; Culture # 1756, Wilkins-Chalgren agar, 37° C., 48 hours | Bacteriodes fragilis; Culture # 1757 | Bacteriodes fragilis; Culture # 1758 | Bacteriodes fragilis; Culture # 1999 | Fusobacterium species | Fusobacterium nucleatum
3.1 µg/mL: S. pyogenes; const., Culture # 1672 | S. epidermidis
128 µg/mL: B. bivius
1 µg/mL: [1]
0.39 µg/mL: Nocardia asteroides
4 µg/mL: Propionibacterium acnes
0.2 µg/mL: Micrococcus luteus; Culture # 2517
64 µg/mL: Veillonella parvula | B. loescheii
